The record followed here is ChEMBL document CHEMBL1201862, “PubChem BioAssay data set” (2004).

Activity calls are given as the source filed them.

Assay [1] in a line: Luminescence Cell-Based Dose Confirmation to Identify Activators of 5'UTR Stem-Loop Driven Alpha-Synuclein mRNA Translation in H4 Neuroglioblastoma Cells. [Related pubchem assays: 1829 (Project Summary), 1814 (Primary HTS)]. Format: functional.
For another assay, the system named is H4. Briefly: Luminescence Cell-Based Dose Response HTS to Identify Activators of 5'UTR Stem-Loop Driven Prion Protein mRNA Translation in H4 Neuroglioblastoma Cells. [Related pubchem assays: 1829 (Project Summary), 1814 (Primary HTS)]. It is filed as functional. Particulars: Homo sapiens.
Assay [2] addresses T1, Zinc finger protein mex-5 (Caenorhabditis elegans, UniProt Q9XUB2).
T1 sequence (Q9XUB2 whole entry): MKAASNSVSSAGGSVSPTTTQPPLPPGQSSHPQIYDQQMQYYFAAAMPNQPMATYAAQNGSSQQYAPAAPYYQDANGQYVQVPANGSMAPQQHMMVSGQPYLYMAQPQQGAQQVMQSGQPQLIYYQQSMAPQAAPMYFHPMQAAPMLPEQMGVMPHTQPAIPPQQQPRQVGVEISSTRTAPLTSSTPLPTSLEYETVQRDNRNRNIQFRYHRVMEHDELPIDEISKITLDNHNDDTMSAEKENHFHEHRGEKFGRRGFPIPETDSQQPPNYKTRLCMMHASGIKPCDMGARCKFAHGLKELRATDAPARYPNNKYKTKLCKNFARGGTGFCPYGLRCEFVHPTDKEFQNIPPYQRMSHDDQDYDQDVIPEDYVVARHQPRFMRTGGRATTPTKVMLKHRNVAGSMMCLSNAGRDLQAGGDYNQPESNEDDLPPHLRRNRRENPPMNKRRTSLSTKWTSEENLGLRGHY
Briefly: MEX-5/TCR-2 RNA interaction inhibitors, dose response, biochemical, C. elegans, fluorescence polarization (AID 1960).

Assay [3] addresses T2, RNA-binding protein pos-1 (Caenorhabditis elegans, UniProt G5EF15).
T2 sequence (G5EF15 whole entry): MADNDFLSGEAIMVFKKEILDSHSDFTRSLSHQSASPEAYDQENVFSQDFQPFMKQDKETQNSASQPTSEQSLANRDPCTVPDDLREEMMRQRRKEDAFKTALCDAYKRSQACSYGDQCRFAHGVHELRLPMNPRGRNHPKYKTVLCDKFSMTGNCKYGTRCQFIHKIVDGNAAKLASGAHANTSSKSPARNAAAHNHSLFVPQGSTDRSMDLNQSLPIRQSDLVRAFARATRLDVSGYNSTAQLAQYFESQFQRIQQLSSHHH
Nature of the assay: inhibitors of POS-1/mex-3 RNA binding, dose response, biochemical, fluorescence polarization (AID 1964).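 Further: purified POS-1 fused to maltose binding protein made in E. coli; potency of compounds blocking POS-1 binding to fluorescent RNA.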

The next assay addresses Estrogen receptor beta (Homo sapiens, UniProt Q92731).
Assay [4] in a line: Luminescence Cell-Based Dose Response to Identify Activators of 5'UTR Stem-Loop Driven Prion Protein mRNA Translation in H4-C Neuroglioblastoma Cells. [Related pubchem assays: 1829 (Project Summary), 1814 (Primary HTS)]. It is filed as functional.
A short description of assay [5]: Luminescence Cell-Based Dose Response HTS to Identify Activators of Luciferase Translation or Activity in H4 […] Cells. [Related pubchem assays: 1829 (Project Summary), 1814 (Primary HTS)]. It is filed as functional.
Assay [6] can be described thus: Luminescence Cell-Based Dose Response to Identify Activators of Luciferase Translation or Activity in H4-C Neuroglioblastoma Cells. [Related pubchem assays: 1829 (Project Summary), 1814 (Primary HTS)]. It is filed as functional.
Assay [7] addresses Protein-tyrosine kinase 2-beta (Homo sapiens, UniProt Q14289).
The target of the next assay is Nonstructural protein 1 (Influenza A virus, UniProt Q194T2). It is filed as functional, Influenza A virus (A/California/07/2009(H1N1)).
The target of assay [8] is T3, Rac GTPase-activating protein 1 (Homo sapiens, UniProt Q9H0H5).
T3 sequence (Q9H0H5 whole entry): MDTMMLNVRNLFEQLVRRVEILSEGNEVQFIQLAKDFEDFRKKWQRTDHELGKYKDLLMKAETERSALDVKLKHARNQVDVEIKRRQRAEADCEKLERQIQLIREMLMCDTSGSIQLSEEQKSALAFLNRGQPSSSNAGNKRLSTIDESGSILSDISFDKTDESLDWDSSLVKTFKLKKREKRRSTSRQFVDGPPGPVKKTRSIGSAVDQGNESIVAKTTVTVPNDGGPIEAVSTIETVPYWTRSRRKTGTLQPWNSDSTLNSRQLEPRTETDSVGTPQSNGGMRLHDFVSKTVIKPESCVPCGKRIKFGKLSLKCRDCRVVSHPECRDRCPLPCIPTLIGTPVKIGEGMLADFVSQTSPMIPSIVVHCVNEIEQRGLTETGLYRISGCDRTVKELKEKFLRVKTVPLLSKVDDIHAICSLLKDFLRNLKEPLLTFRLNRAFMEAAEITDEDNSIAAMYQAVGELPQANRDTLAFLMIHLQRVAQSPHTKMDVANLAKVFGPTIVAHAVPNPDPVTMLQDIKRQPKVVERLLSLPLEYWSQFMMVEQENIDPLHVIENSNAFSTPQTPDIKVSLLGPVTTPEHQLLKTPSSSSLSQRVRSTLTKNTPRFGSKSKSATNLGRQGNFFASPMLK
Nature of the assay: MgcRacGAP GTPase-activating activity inhibitors, confirmation, biochemical, ADP Hunter fluorescence, primary and confirmatory (AID 624330). Format: functional.

Assay [9] can be described thus: HeLa cell cytotoxicity, dose response, cytotoxicity control for MgcRacGAP inhibitor project (AID 624300). Format: functional.
For a further assay, the target named is T4, Leucine aminopeptidase (Plasmodium falciparum 3D7, UniProt Q8IL11).
T4 sequence (Q8IL11 whole entry): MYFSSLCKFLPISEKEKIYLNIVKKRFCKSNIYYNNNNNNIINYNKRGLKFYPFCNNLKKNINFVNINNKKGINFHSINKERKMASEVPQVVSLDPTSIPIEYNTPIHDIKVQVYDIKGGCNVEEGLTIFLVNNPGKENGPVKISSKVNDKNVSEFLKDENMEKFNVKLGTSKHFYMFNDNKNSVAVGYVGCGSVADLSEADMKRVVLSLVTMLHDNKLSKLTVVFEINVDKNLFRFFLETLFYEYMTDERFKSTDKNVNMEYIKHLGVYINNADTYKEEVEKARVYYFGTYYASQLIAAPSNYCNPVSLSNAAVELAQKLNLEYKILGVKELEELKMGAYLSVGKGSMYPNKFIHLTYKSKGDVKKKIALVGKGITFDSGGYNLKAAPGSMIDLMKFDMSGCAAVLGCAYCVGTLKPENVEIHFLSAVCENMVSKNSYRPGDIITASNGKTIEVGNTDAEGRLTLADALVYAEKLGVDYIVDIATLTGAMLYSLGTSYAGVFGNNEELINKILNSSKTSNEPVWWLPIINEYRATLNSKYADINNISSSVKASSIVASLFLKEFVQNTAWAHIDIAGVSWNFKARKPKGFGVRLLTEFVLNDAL
Briefly: P. falciparum M17LAP inhibitors, primary screen, biochemical, fluorogenic H-Leu-NHMec substrate, 1536-well (AID 1619). Format: functional.

Assay [10] can be described thus: human group III sPLA2 inhibitors, dose response, biochemical, QFRET, IC50 (AID 743457).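 Further: green fluorescence rise as the enzyme cleaves BODIPY PC-A2 in liposomes; potency for inhibition of the enzyme.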
A short description of assay [11]: Escherichia coli growth inhibition, dose response, counter-screen for MEX-5/POS-1 RNA-binding inhibitor project, luminescence, NEB5alpha (AID 1959). Format: functional.
The target in assay [12] is T5, Bcl-2-related protein A1 (Mus musculus, UniProt Q07440).
T5 sequence (Q07440 whole entry): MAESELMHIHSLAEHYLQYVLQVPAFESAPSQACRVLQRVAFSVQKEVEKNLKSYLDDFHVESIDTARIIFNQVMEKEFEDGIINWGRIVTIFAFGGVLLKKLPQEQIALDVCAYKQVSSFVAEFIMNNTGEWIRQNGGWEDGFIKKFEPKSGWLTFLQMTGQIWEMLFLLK
Nature of the assay: Bfl-1 inhibitors blocking BH3 peptide binding, confirmation, biochemical, TR-FRET, mouse Bfl-1 (AID 621).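 Further: TR-FRET binding of GST-Bfl-1 to FITC-labelled Bid peptide via terbium antibody.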

The next assay has as its target T6, Protein skinhead-1 (Caenorhabditis elegans, UniProt P34707).
T6 sequence (P34707 whole entry): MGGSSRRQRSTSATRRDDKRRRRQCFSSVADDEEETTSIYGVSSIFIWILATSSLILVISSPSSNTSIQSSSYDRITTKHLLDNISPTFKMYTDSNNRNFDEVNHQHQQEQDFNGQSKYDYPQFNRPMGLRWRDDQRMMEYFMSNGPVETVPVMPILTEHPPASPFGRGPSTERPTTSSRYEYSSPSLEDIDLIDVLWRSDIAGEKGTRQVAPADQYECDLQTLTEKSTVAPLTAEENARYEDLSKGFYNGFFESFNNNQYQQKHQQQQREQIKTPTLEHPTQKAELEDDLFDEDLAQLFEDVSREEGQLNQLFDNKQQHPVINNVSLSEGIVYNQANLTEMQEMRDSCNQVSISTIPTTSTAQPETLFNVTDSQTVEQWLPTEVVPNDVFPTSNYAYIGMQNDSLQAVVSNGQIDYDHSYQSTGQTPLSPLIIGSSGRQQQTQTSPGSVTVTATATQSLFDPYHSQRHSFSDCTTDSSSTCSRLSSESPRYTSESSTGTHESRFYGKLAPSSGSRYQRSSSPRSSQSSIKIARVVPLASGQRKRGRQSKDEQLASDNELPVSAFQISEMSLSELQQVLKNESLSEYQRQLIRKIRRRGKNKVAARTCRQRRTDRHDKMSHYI
It is filed as functional.

Assay [13] deals with T5, Bcl-2-related protein A1. Briefly: Bfl-1 binding inhibitors, SAR follow-up, biochemical, fluorescence polarization (AID 1070).

Sequence of Estrogen receptor beta (Q92731 whole entry): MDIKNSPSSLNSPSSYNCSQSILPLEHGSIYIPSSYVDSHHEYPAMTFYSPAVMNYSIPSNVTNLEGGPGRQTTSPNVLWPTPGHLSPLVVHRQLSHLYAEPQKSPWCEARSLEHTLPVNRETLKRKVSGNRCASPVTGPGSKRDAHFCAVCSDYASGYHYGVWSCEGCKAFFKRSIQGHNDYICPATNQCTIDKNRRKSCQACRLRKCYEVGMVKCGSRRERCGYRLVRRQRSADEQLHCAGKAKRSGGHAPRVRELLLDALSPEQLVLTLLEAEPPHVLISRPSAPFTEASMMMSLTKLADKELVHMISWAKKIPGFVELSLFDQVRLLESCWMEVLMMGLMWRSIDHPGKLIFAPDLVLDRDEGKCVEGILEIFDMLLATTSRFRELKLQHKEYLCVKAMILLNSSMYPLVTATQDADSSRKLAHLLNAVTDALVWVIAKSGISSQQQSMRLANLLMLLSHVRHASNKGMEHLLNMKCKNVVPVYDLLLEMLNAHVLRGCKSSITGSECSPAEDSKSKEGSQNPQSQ
Sequence of Protein-tyrosine kinase 2-beta (Q14289 whole entry): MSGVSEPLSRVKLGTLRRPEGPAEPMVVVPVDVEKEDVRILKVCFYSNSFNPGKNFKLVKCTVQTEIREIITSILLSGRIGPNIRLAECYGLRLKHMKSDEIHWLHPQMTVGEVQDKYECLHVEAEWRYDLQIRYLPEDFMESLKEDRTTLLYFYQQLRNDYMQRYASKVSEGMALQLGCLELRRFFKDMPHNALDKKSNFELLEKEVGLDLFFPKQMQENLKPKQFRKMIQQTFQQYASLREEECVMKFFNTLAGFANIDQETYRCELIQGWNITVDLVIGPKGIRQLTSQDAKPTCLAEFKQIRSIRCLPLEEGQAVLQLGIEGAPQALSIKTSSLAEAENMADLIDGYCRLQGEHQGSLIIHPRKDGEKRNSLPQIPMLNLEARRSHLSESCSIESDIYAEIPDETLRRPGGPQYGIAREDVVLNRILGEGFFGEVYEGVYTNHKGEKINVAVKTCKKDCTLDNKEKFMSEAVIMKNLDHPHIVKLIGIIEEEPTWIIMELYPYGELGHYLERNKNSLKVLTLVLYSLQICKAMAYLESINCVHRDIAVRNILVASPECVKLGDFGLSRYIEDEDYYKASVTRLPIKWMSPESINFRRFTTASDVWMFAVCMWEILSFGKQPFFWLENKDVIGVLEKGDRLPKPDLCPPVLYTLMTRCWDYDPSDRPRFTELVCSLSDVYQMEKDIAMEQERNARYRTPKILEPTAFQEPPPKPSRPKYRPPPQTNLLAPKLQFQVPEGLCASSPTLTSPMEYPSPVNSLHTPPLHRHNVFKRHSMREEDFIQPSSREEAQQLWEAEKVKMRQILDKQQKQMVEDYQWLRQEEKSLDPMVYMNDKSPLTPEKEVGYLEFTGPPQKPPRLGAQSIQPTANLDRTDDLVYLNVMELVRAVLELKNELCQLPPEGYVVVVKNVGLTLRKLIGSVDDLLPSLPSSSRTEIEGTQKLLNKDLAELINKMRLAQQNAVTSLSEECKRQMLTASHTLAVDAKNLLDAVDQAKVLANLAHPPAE
Sequence of Nonstructural protein 1 (Q194T2 whole entry): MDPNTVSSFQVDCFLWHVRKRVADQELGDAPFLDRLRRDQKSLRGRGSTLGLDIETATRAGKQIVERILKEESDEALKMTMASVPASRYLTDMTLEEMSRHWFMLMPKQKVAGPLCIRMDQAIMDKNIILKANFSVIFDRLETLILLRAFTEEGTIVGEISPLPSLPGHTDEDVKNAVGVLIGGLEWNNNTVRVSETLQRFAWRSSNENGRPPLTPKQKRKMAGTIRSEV

Turning to `CCc1c(C)nc(SCC(=O)c2cccs2)c(C#N)c1C`, the EC50 in assay [1] is 0.552 µM (active); with H4 it was 0.149 µM (active); in assay [2] it was 36.7 µM (inconclusive); in [3], 11.5 µM (inconclusive); in assay [4], 0.332 µM (active); in [5], < 0.1 µM (inconclusive). Also, in assay [6], the EC50 was 0.302 µM (active). Moreover, the IC50 at Estrogen receptor beta is reported as > 50 µM (not active); in assay [7], > 69.5 µM (not active).
As for `CC[n+]1c(/C=C/c2ccc(N(C)C)cc2)ccc2ccccc21`, the IC50 on Nonstructural protein 1 is 18.9 µM (active); in [8], 46.6 µM (active); at Leucine aminopeptidase, 110 µM (active); in [10] it was 34 µM (inactive). Besides, the EC50 in assay [2] was > 300 µM (not active); in assay [3], > 300 µM (not active); in [11], 37.8 µM (active). Moreover, in assay [9], the CC50 was 39.7 µM (active).
Turning to `Fc1ccc(-n2nnc(-c3cccnc3)n2)cc1`, the half-inhibitory concentration (IC50) is > 100 µM (not active) on Bcl-2-related protein A1 [12], 17.4 µM (active) at Protein skinhead-1 and > 100 µM (not active) on Bcl-2-related protein A1 [13].
